# Measurements taken from patent publication US20070179716A1, “Crystal structure of cytochrome P450 3A4 and uses thereof” (ASTEX THERAPEUTICS LIMITED, priority 2001, published 2007).
# Experiments:
# [1] = molecular target: human cytochrome P450 3A4 (Homo sapiens, UniProt P08684)
# Procedure: 3A4 protein produced essentially as described in “Protein purification (3)” above was used to obtain co-crystals with metyrapone, apart from replacing the CM-Sepharose column with a CM-fast flow column. Co-crystals of metyrapone were generated using crystallisation conditions of 0.1M Hepes pH 7.5, 0.25M sodium chloride, 5% MPD, 50 mM Calcium chloride, 10% (w/v) PEG 4000, and soaking the crystals in 0.5 mM metyrapone for 4 hours. […] The Fe—N bond distance was loosely restrained to […] during the refinement.
# 3A4 protein produced essentially as described in “Protein purification (3)” above was used to obtain co-crystals with progesterone, apart from replacing the CM-Sepharose column with a CM-fast flow column. Co-crystals of progesterone were obtained by co-crystallisation using 0.5 mM progesterone in 2.5% ethanol and crystallisation conditions of 0.1M HEPES pH 7.5, 0.25M potassium chloride, 12% (w/v) PEG 4000, 5% (w/v) MPD, 25 mM calcium chloride.
# Molecular replacement was performed using the program AMORE and using the CYP3A4 crystal structure described in Table 1 as the search model. […] This molecular replacement model was then used as a starting model for subsequent refinement of other datasets from crystal form 2.
# Apo (compound-free) crystals of 3A4 were obtained by setting up a 1:1 ratio of protein (at 36.5 mg/ml in buffer, 10 mM KPi, pH7.2, 20% glycerol, 1 mM EDTA, 2 mM DTT, 0.5M KCl) against 0.1 M Hepes-NaOH pH 7.5, 1.44 M sodium citrate.
# Apo (compound-free) crystals of 3A4 were generated by setting up a 1:1 ratio of protein (at 36.5 mg/ml in buffer, 10 mM KPi, pH7.2, 20% glycerol, 1 mM EDTA, 2 mM DTT, 0.5M KCl) against 0.1M Hepes-NaOH pH 7.5, 1.424M Sodium citrate. The resulting crystals were soaked for 18 hours in a mother liquor containing 5 mM fluconazole, and then frozen using 0.1M Hepes-NaOH pH7.5, 1.4M sodium citrate, 15% glycerol.
# [2] = molecular target: T1, CYP3A4 (Homo sapiens, UniProt P08684); test: UV/visible spectroscopy of inhibitor binding in solution; conditions: UV/visible spectroscopic data (not shown)
# T1 construct: made in house; host or cells: E. coli XL1 Blue
# T1 sequence (P08684 with tags, fused parts or gaps): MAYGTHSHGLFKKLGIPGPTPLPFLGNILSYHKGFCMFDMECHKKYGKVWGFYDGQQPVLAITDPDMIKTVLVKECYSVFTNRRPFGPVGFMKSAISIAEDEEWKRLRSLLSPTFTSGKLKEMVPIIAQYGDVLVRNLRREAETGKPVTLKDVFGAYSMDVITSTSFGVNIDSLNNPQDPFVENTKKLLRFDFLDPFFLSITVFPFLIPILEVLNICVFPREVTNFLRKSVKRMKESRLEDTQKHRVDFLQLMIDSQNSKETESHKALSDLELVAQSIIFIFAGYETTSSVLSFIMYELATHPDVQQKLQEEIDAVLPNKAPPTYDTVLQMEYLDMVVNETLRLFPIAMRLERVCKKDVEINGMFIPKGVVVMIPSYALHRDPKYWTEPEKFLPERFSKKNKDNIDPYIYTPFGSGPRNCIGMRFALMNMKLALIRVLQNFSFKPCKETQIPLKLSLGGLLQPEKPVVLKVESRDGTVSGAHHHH
# Sequence of human cytochrome P450 3A4 (P08684 with tags, fused parts or gaps): as above
distance of the compound (nearest atom) from the haem iron [1],separation of the two bound copies of the compound [1],volume occupied by the molecule in the active site [1],binding mode in solution [2],SMILES,binding position of the compound in the 3A4 crystal structure [1]
approximately 14 Å,approximately 7 Å,,,OC(Cn1cncn1)(Cn1cncn1)c1ccc(F)cc1F [fluconazole],
,,50 Å^3,liganded to the haem,CC(C)(C(=O)c1cccnc1)c1cccnc1 [metyrapone],bound directly to the haem iron via a pyridine nitrogen
,,,,CC(=O)[C@H]1CC[C@H]2[C@@H]3CCC4=CC(=O)CC[C@]4(C)[C@H]3CC[C@]12C [progesterone],bound at a peripheral site very close to the Phe-cluster
